# Data published in publication PMC12184311 (2025).
# Experiments:
# [1] = test system: mm3WJ (mismatched 3WJ) (DNA, junction) CGGAACGGCACTCG/CGAGTGCAGCGTGG/CCACGCACGTTCCG; assay: PAGE
# [2] = test system: two-base-bulged 3WJ (DNA, junction) CGGAACGAAGCACTCG/CGAGTGCAGCGTGG/CCACGCTCGTTCCG; assay: PAGE
# [3] = test system: one-base-bulged 3WJ (DNA, junction) CGGAACGAGCACTCG/CGAGTGCAGCGTGG/CCACGCTCGTTCCG; assay: PAGE
# [4] = test system: 4WJ-22 (DNA, junction) GCCTAGCATGATACTGCTACCG/CGGTAGCAGTACCGTTGGTGGC/GCCACCAACGGCGTCAACTGCC/GGCAGTTGACGTCATGCTAGGC; assay: UV melting, 260 nm; conditions: Na+ (10 mM Na cacodylate, 50 mM NaOAc); 1 equivalent Pt-BIMA, 0.05% DMSO; biphasic
# [5] = test system: FAM-labelled 4WJ-22 (FAM-4WJ) (DNA, junction) GCCTAGCATGATACTGCTACCG/CGGTAGCAGTACCGTTGGTGGC/GCCACCAACGGCGTCAACTGCC/GGCAGTTGACGTCATGCTAGGC; assay: microscale thermophoresis; conditions: Na+ 50 mM (NaOAc); 10 mM HEPES, 0.1% Tween, room temperature; 20 nM DNA
# [6] = test system: DS-21 (dsDNA) (DNA, duplex) CCTTCACGCGAACGTAATCCT/AGGATTACGTTCGCGTGAAGG; assay: MST competition, unlabelled DNA titrated; conditions: Na+ 50 mM (NaOAc); IC50 of competitor DNA, not of compound; 20 nM FAM-4WJ-22, 80 nM Pt-BIMA; 10 mM HEPES, 0.1% Tween-20
# [7] = test system: DS-21 (dsDNA) (DNA, duplex) CCTTCACGCGAACGTAATCCT/AGGATTACGTTCGCGTGAAGG; assay: UV melting, 260 nm; conditions: Na+ (10 mM Na cacodylate, 50 mM NaOAc); 1 equivalent Pt-BIMA
# [8] = test system: Y fork (DNA, junction) CGCACGTACGGAACGGCACTCGCTTGCTCG/CGAGCAAGCGAGTGCAGCGTGGATACATGC; assay: UV melting, 260 nm; conditions: Na+ (10 mM Na cacodylate, 50 mM NaOAc); 1 equivalent Pt-BIMA
# [9] = test system: FAM-labelled DS-21 (dsDNA) (DNA, duplex) CCTTCACGCGAACGTAATCCT/AGGATTACGTTCGCGTGAAGG; assay: microscale thermophoresis; conditions: Na+ 50 mM (NaOAc); 10 mM HEPES, 0.1% Tween, room temperature; tested 1.5 nM to 50 µM Pt-BIMA
# [10] = test system: 4WJ-22 (DNA, junction) GCCTAGCATGATACTGCTACCG/CGGTAGCAGTACCGTTGGTGGC/GCCACCAACGGCGTCAACTGCC/GGCAGTTGACGTCATGCTAGGC; assay: PAGE gel shift; conditions: Mg2+ 10 mM (MgCl2); band widens, no distinct shift
# [11] = test system: 4WJ-22 (DNA, junction) GCCTAGCATGATACTGCTACCG/CGGTAGCAGTACCGTTGGTGGC/GCCACCAACGGCGTCAACTGCC/GGCAGTTGACGTCATGCTAGGC; assay: MST competition, unlabelled DNA titrated; conditions: Na+ 50 mM (NaOAc); IC50 of competitor DNA, not of compound; 20 nM FAM-4WJ-22, 80 nM Pt-BIMA; 10 mM HEPES, 0.1% Tween-20
# [12] = test system: FAM-labelled 3WJ-18 (DNA, junction) GTGGCGAGAGCGACGATC/GATCGTCGCAGAGTTGAC/GTCAACTCTTCTCGCCAC; assay: microscale thermophoresis; conditions: Na+ 50 mM (NaOAc); 10 mM HEPES, 0.1% Tween, room temperature; error exceeds value
# [13] = test system: 4WJ-FAM1 (DNA, junction) GCCTAGCATGATACTGCTACCG/CGGTAGCAGTACCGTTGGTGGC/GCCACCAACGGCGTCAACTGCC/GGCAGTTGACGTCATGCTAGGC; assay: FRET, FAM emission; conditions: Na+ 50 mM (NaOAc); 10 mM HEPES; 5 µM DNA, 1 equivalent Pt-BIMA; FAM emission up about 3.5-fold
# [14] = test system: 3WJ (DNA, junction) CGGAACGGCACTCG/CGAGTGCAGCGTGG/CCACGCTCGTTCCG; assay: UV melting, 260 nm; conditions: Na+ (10 mM Na cacodylate, 50 mM NaOAc); 1 equivalent Pt-BIMA
Compound,binding [1],binding [2],binding [3],ΔTm [4],Kd [5],IC50 [6],ΔTm [7],ΔTm [8],binding [9],binding [10],IC50 [11],Kd [12],binding [13],ΔTm [14]
[Pd+2].[Pd+2].c1ccc2c(c1)ncn2Cc1c2ccccc2c(Cn2cnc3ccccc32)c2ccccc12.c1ccc2c(c1)ncn2Cc1c2ccccc2c(Cn2cnc3ccccc32)c2ccccc12.c1ccc2c(c1)ncn2Cc1c2ccccc2c(Cn2cnc3ccccc32)c2ccccc12.c1ccc2c(c1)ncn2Cc1c2ccccc2c(Cn2cnc3ccccc32)c2ccccc12,yes,yes,yes,–,–,–,–,–,–,–,–,–,–,–
[Pt+2].[Pt+2].c1ccc2c(c1)ncn2Cc1c2ccccc2c(Cn2cnc3ccccc32)c2ccccc12.c1ccc2c(c1)ncn2Cc1c2ccccc2c(Cn2cnc3ccccc32)c2ccccc12.c1ccc2c(c1)ncn2Cc1c2ccccc2c(Cn2cnc3ccccc32)c2ccccc12.c1ccc2c(c1)ncn2Cc1c2ccccc2c(Cn2cnc3ccccc32)c2ccccc12,yes,yes,yes,11.6 ± 0.6 °C,8.27 ± 1.11 x 10^-8 M,> 25 µM,0.7 ± 0.9 °C,5.4 ± 1.1 °C,no,weak,2.88 ± 0.42 x 10^-8 M,1.90 ± 2.27 × 10^-6 M,yes,21.1 ± 0.1 °C
